According to ChEMBL document CHEMBL5303573, “Mapping human microbiome drug metabolism by gut bacteria and their genes” (Nature, 2019):

Key:
[1] = bacteroides stercoris, 12 h, 2 µM
Description: The drug is tested on Bacteroides stercoris strain: ATCC43183 for biotransformation. The drug concentrations were measured before and after a 12-h incubation by liquid-chromatography-coupled mass spectrometry (LC–MS)

[2] = The drug is tested on Eubacterium ventriosum strain: ATCC27560 for biotransformation. The drug concentrations were measured before and after a 12-h incubation by liquid-chromatography-coupled mass spectrometry (LC–MS); format: ADME; parameters: dose 2 uM, timepoint 0 vs 12 hours; conditions: 2 µM
[3] = The drug is tested on Eubacterium hallii strain: DSM3353 for biotransformation. The drug concentrations were measured before and after a 12-h incubation by liquid-chromatography-coupled mass spectrometry (LC–MS); conditions: anaerobutyricum hallii, 2 µM
[4] = The drug is tested on Enterobacter cancerogenus strain: ATCC35316 for biotransformation. The drug concentrations were measured before and after a 12-h incubation by liquid-chromatography-coupled mass spectrometry (LC–MS); conditions: 2 µM
[5] = bacteroides thetaiotaomicron, 12 h, 2 µM
Description: The drug is tested on Bacteroides thetaiotaomicron strain: 3731 for biotransformation. The drug concentrations were measured before and after a 12-h incubation by liquid-chromatography-coupled mass spectrometry (LC–MS)

[6] = The drug is tested on Bacteroides coprophilus strain: DSM18228 for biotransformation. The drug concentrations were measured before and after a 12-h incubation by liquid-chromatography-coupled mass spectrometry (LC–MS); conditions: 2 µM
[7] = bacteroides fragilis, 12 h, 2 µM
Description: The drug is tested on Bacteroides fragilis strain: 3397 (T10) for biotransformation. The drug concentrations were measured before and after a 12-h incubation by liquid-chromatography-coupled mass spectrometry (LC–MS)

[8] = The drug is tested on Anaerococcus hydrogenalis strain: DSM7454 for biotransformation. The drug concentrations were measured before and after a 12-h incubation by liquid-chromatography-coupled mass spectrometry (LC–MS); conditions: 2 µM
[9] = The drug is tested on Ruminococcus lactaris strain: ATCC29176 for biotransformation. The drug concentrations were measured before and after a 12-h incubation by liquid-chromatography-coupled mass spectrometry (LC–MS); conditions: 2 µM
[10] = The drug is tested on Ruminococcus gnavus strain: ATCC29149 for biotransformation. The drug concentrations were measured before and after a 12-h incubation by liquid-chromatography-coupled mass spectrometry (LC–MS); conditions: mediterraneibacter gnavus, 2 µM
[11] = parabacteroides distasonis, 12 h, 2 µM
Description: The drug is tested on Parabacteroides distasonis strain: ATCC8503 for biotransformation. The drug concentrations were measured before and after a 12-h incubation by liquid-chromatography-coupled mass spectrometry (LC–MS)

[12] = The drug is tested on Anaerotruncus colihominis strain: DSM17241 for biotransformation. The drug concentrations were measured before and after a 12-h incubation by liquid-chromatography-coupled mass spectrometry (LC–MS); conditions: 2 µM
[13] = The drug is tested on Bacteroides finegoldii strain: DSM17565 for biotransformation. The drug concentrations were measured before and after a 12-h incubation by liquid-chromatography-coupled mass spectrometry (LC–MS); conditions: 2 µM
[14] = The drug is tested on Bifidobacterium breve strain: DSM20213 for biotransformation. The drug concentrations were measured before and after a 12-h incubation by liquid-chromatography-coupled mass spectrometry (LC–MS); conditions: 2 µM
[15] = The drug is tested on Clostridium scindens strain: ATCC35704 for biotransformation. The drug concentrations were measured before and after a 12-h incubation by liquid-chromatography-coupled mass spectrometry (LC–MS); conditions: 2 µM
[16] = The drug is tested on Bacteroides vulgatus strain: ATCC8482 for biotransformation. The drug concentrations were measured before and after a 12-h incubation by liquid-chromatography-coupled mass spectrometry (LC–MS); conditions: phocaeicola vulgatus, 2 µM
[17] = bacteroides fragilis, 12 h, 2 µM; remark: listed apart in the source
Description: The drug is tested on Bacteroides fragilis strain: DS-208 for biotransformation. The drug concentrations were measured before and after a 12-h incubation by liquid-chromatography-coupled mass spectrometry (LC–MS)

[18] = The drug is tested on Alistipes indistinctus strain: DSM22520 for biotransformation. The drug concentrations were measured before and after a 12-h incubation by liquid-chromatography-coupled mass spectrometry (LC–MS); conditions: 2 µM
[19] = parabacteroides johnsonii, 12 h, 2 µM
Description: The drug is tested on Parabacteroides johnsonii strain: DSM18315 for biotransformation. The drug concentrations were measured before and after a 12-h incubation by liquid-chromatography-coupled mass spectrometry (LC–MS)

CN(C)CC(c1ccc(O)cc1)C1(O)CCCCC1.O=C(O)CCC(=O)O (stereo unspecified) [DESVENLAFAXINE SUCCINATE]
Bacterial Biotransformation [1]: Compound NOT metabolized
Bacterial Biotransformation [2]: Compound NOT metabolized
Bacterial Biotransformation [3]: Compound NOT metabolized
Bacterial Biotransformation [4]: Compound NOT metabolized
Bacterial Biotransformation [5]: Compound NOT metabolized
Bacterial Biotransformation [6]: Compound NOT metabolized
Bacterial Biotransformation [7]: Compound NOT metabolized
Bacterial Biotransformation [8]: Compound NOT metabolized
Bacterial Biotransformation [9]: Compound NOT metabolized
Bacterial Biotransformation [10]: Compound NOT metabolized
Bacterial Biotransformation [11]: Compound NOT metabolized
Bacterial Biotransformation [12]: Compound NOT metabolized
Bacterial Biotransformation [13]: Compound NOT metabolized
Bacterial Biotransformation [14]: Compound NOT metabolized
Bacterial Biotransformation [15]: Compound NOT metabolized
Bacterial Biotransformation [16]: Compound NOT metabolized
Bacterial Biotransformation [17]: Compound NOT metabolized

Br.COc1ccc2c(c1)[C@]13CCCC[C@@H]1[C@H](C2)N(C)CC3.O [DEXTROMETHORPHAN HYDROBROMIDE]
Bacterial Biotransformation [1]: Compound NOT metabolized
Bacterial Biotransformation [2]: Compound NOT metabolized
Bacterial Biotransformation [3]: Compound NOT metabolized
Bacterial Biotransformation [4]: Compound NOT metabolized
Bacterial Biotransformation [6]: Compound NOT metabolized
Bacterial Biotransformation [7]: Compound NOT metabolized
Bacterial Biotransformation [8]: Compound NOT metabolized
Bacterial Biotransformation [9]: Compound NOT metabolized
Bacterial Biotransformation [10]: Compound NOT metabolized
Bacterial Biotransformation [12]: Compound NOT metabolized
Bacterial Biotransformation [13]: Compound NOT metabolized
Bacterial Biotransformation [18]: Compound NOT metabolized
Bacterial Biotransformation [14]: Compound NOT metabolized
Bacterial Biotransformation [15]: Compound NOT metabolized
Bacterial Biotransformation [16]: Compound NOT metabolized
Bacterial Biotransformation [17]: Compound NOT metabolized

CN1CCOC(c2ccccc2)c2ccccc2C1 (stereo unspecified) [NEFOPAM]
Bacterial Biotransformation [1]: Compound NOT metabolized
Bacterial Biotransformation [2]: Compound NOT metabolized
Bacterial Biotransformation [3]: Compound NOT metabolized
Bacterial Biotransformation [4]: Compound NOT metabolized
Bacterial Biotransformation [5]: Compound NOT metabolized
Bacterial Biotransformation [6]: Compound NOT metabolized
Bacterial Biotransformation [7]: Compound NOT metabolized
Bacterial Biotransformation [8]: Compound NOT metabolized
Bacterial Biotransformation [9]: Compound NOT metabolized
Bacterial Biotransformation [10]: Compound NOT metabolized
Bacterial Biotransformation [11]: Compound NOT metabolized
Bacterial Biotransformation [12]: Compound NOT metabolized
Bacterial Biotransformation [13]: Compound NOT metabolized
Bacterial Biotransformation [19]: Compound NOT metabolized
Bacterial Biotransformation [14]: Compound NOT metabolized
Bacterial Biotransformation [15]: Compound NOT metabolized
Bacterial Biotransformation [17]: Compound NOT metabolized

O=C(CCCN1CCC(O)(c2ccc(Cl)cc2)CC1)c1ccc(F)cc1 [HALOPERIDOL]
Bacterial Biotransformation [1]: Compound NOT metabolized
Bacterial Biotransformation [2]: Compound NOT metabolized
Bacterial Biotransformation [3]: Compound NOT metabolized
Bacterial Biotransformation [4]: Compound NOT metabolized
Bacterial Biotransformation [5]: Compound NOT metabolized
Bacterial Biotransformation [7]: Compound NOT metabolized
Bacterial Biotransformation [8]: Compound NOT metabolized
Bacterial Biotransformation [9]: Compound NOT metabolized
Bacterial Biotransformation [10]: Compound NOT metabolized
Bacterial Biotransformation [13]: Compound NOT metabolized
Bacterial Biotransformation [18]: Compound NOT metabolized
Bacterial Biotransformation [14]: Compound NOT metabolized
Bacterial Biotransformation [15]: Compound NOT metabolized
Bacterial Biotransformation [16]: Compound NOT metabolized
Bacterial Biotransformation [17]: Compound NOT metabolized

CN1CCC(=C2c3ccccc3CC(=O)c3sccc32)CC1.O=C(O)/C=C/C(=O)O [KETOTIFEN FUMARATE]
Bacterial Biotransformation [1]: Compound NOT metabolized
Bacterial Biotransformation [2]: Compound NOT metabolized
Bacterial Biotransformation [3]: Compound NOT metabolized
Bacterial Biotransformation [4]: Compound NOT metabolized
Bacterial Biotransformation [5]: Compound NOT metabolized
Bacterial Biotransformation [6]: Compound NOT metabolized
Bacterial Biotransformation [7]: Compound NOT metabolized
Bacterial Biotransformation [8]: Compound NOT metabolized
Bacterial Biotransformation [9]: Compound NOT metabolized
Bacterial Biotransformation [10]: Compound NOT metabolized
Bacterial Biotransformation [11]: Compound NOT metabolized
Bacterial Biotransformation [12]: Compound NOT metabolized
Bacterial Biotransformation [13]: Compound NOT metabolized
Bacterial Biotransformation [19]: Compound NOT metabolized
Bacterial Biotransformation [14]: Compound NOT metabolized
Bacterial Biotransformation [15]: Compound NOT metabolized
Bacterial Biotransformation [17]: Compound NOT metabolized

COCCc1ccc(OCC(O)CNC(C)C)cc1.COCCc1ccc(OCC(O)CNC(C)C)cc1.O=C(O)C(O)C(O)C(=O)O (stereo unspecified) [METOPROLOL TARTRATE]
Bacterial Biotransformation [2]: Compound NOT metabolized
Bacterial Biotransformation [3]: Compound NOT metabolized
Bacterial Biotransformation [4]: Compound NOT metabolized
Bacterial Biotransformation [6]: Compound NOT metabolized
Bacterial Biotransformation [7]: Compound NOT metabolized
Bacterial Biotransformation [8]: Compound NOT metabolized
Bacterial Biotransformation [9]: Compound NOT metabolized
Bacterial Biotransformation [10]: Compound NOT metabolized
Bacterial Biotransformation [11]: Compound NOT metabolized
Bacterial Biotransformation [12]: Compound NOT metabolized
Bacterial Biotransformation [13]: Compound NOT metabolized
Bacterial Biotransformation [19]: Compound NOT metabolized
Bacterial Biotransformation [14]: Compound NOT metabolized
Bacterial Biotransformation [15]: Compound NOT metabolized
Bacterial Biotransformation [16]: Compound NOT metabolized
Bacterial Biotransformation [17]: Compound NOT metabolized

CNCC[C@H](Oc1cccc2ccccc12)c1cccs1 [DULOXETINE]
Bacterial Biotransformation [1]: Compound metabolized
Bacterial Biotransformation [2]: Compound NOT metabolized
Bacterial Biotransformation [4]: Compound metabolized
Bacterial Biotransformation [5]: Compound NOT metabolized
Bacterial Biotransformation [6]: Compound metabolized
Bacterial Biotransformation [8]: Compound NOT metabolized
Bacterial Biotransformation [10]: Compound NOT metabolized
Bacterial Biotransformation [11]: Compound NOT metabolized
Bacterial Biotransformation [12]: Compound NOT metabolized
Bacterial Biotransformation [13]: Compound NOT metabolized
Bacterial Biotransformation [19]: Compound metabolized
Bacterial Biotransformation [14]: Compound NOT metabolized
Bacterial Biotransformation [15]: Compound NOT metabolized
Bacterial Biotransformation [17]: Compound NOT metabolized

CCN(CC)CCOC(=O)C1(C2CCCCC2)CCCCC1 [DICYCLOMINE]
Bacterial Biotransformation [3]: Compound NOT metabolized
Bacterial Biotransformation [4]: Compound NOT metabolized
Bacterial Biotransformation [5]: Compound NOT metabolized
Bacterial Biotransformation [6]: Compound NOT metabolized
Bacterial Biotransformation [8]: Compound NOT metabolized
Bacterial Biotransformation [9]: Compound NOT metabolized
Bacterial Biotransformation [10]: Compound NOT metabolized
Bacterial Biotransformation [11]: Compound metabolized
Bacterial Biotransformation [12]: Compound NOT metabolized
Bacterial Biotransformation [18]: Compound NOT metabolized
Bacterial Biotransformation [14]: Compound NOT metabolized
Bacterial Biotransformation [16]: Compound metabolized
Bacterial Biotransformation [17]: Compound NOT metabolized

CCN(CC)C(=O)C1(c2ccccc2)CC1CN (stereo unspecified)
Bacterial Biotransformation [1]: Compound NOT metabolized
Bacterial Biotransformation [2]: Compound NOT metabolized
Bacterial Biotransformation [3]: Compound NOT metabolized
Bacterial Biotransformation [4]: Compound NOT metabolized
Bacterial Biotransformation [5]: Compound NOT metabolized
Bacterial Biotransformation [6]: Compound NOT metabolized
Bacterial Biotransformation [7]: Compound NOT metabolized
Bacterial Biotransformation [8]: Compound NOT metabolized
Bacterial Biotransformation [9]: Compound NOT metabolized
Bacterial Biotransformation [10]: Compound NOT metabolized
Bacterial Biotransformation [11]: Compound NOT metabolized
Bacterial Biotransformation [12]: Compound NOT metabolized
Bacterial Biotransformation [13]: Compound NOT metabolized
Bacterial Biotransformation [19]: Compound NOT metabolized
Bacterial Biotransformation [14]: Compound NOT metabolized
Bacterial Biotransformation [15]: Compound NOT metabolized
Bacterial Biotransformation [16]: Compound NOT metabolized
Bacterial Biotransformation [17]: Compound NOT metabolized

CC(C)[C@H]1CC[C@H](C(=O)N[C@H](Cc2ccccc2)C(=O)O)CC1 [NATEGLINIDE]
Bacterial Biotransformation [1]: Compound NOT metabolized
Bacterial Biotransformation [2]: Compound NOT metabolized
Bacterial Biotransformation [3]: Compound NOT metabolized
Bacterial Biotransformation [4]: Compound NOT metabolized
Bacterial Biotransformation [5]: Compound NOT metabolized
Bacterial Biotransformation [6]: Compound NOT metabolized
Bacterial Biotransformation [7]: Compound NOT metabolized
Bacterial Biotransformation [8]: Compound NOT metabolized
Bacterial Biotransformation [9]: Compound NOT metabolized
Bacterial Biotransformation [10]: Compound NOT metabolized
Bacterial Biotransformation [11]: Compound NOT metabolized
Bacterial Biotransformation [12]: Compound NOT metabolized
Bacterial Biotransformation [13]: Compound NOT metabolized
Bacterial Biotransformation [18]: Compound NOT metabolized
Bacterial Biotransformation [14]: Compound NOT metabolized
Bacterial Biotransformation [15]: Compound NOT metabolized
Bacterial Biotransformation [16]: Compound metabolized
Bacterial Biotransformation [17]: Compound metabolized
